# From US11485742B2, “2-azaspiro[3.4]octane derivatives as M4 agonists” (NOVARTIS AG, priority 2019, dated 2022)
# Assays:
# [1] = target: T1, human cloned CHRM2 receptor (Homo sapiens, UniProt P08172); test: CHRM2 Ca++ Flux Assay (M2_CHO cells, agonist mode); assay type: cell-based; details: M2 CHO cells; for EC50: agonist mode, geometric mean if tested more than once, read-out: M2 FDSS EC50; for Emax / M2 FDSS PA %: Percent Activity (PA) measured to EC100 of Carbachol; for Emax: read-out: M2 FDSS PA %
# T1 construct: expressed in transfected cells; host or cells: CHO-K1 (M2_CHO)
# T1 sequence (P08172 1-466): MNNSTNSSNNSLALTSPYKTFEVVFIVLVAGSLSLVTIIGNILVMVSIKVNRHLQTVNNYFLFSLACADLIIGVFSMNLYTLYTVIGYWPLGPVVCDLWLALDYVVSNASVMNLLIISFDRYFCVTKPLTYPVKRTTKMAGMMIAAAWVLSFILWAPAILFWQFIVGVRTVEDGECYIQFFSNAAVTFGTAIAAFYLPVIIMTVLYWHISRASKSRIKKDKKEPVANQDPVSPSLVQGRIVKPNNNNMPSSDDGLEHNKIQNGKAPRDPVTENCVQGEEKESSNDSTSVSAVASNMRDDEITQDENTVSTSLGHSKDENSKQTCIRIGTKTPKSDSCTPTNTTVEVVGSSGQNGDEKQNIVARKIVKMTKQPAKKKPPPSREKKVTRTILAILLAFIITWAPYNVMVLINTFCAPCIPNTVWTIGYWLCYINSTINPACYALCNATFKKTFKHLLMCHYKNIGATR
# Description: (§1) The above examples were characterized by measuring the intracellular mobilization of Ca^++ ions caused by signaling events mediated by the receptor. The Intra-cellular Calcium flux levels were captured by the highly sensitive Ca^++ indicator, Calcium Assay Kit (BD Biosciences; Catalog Number 640178. The fluorescent activity from all receptors were monitored by the fluorescent imager, FDSS 7000EX (Hamamatsu) over a span of 3 minutes. The change in Calcium flux was readily captured upon activation with the muscarinic orthosteric agonist, Carbachol.
# (§2) CHO-K1 cells stably expressing the human cloned CHRM2 receptor (M2_CHO cells) were grown and maintained in a monolayer culture with F12/HAM (Life Technologies) supplemented with 10% Fetal Bovine Serum, 1×Pen-Strep, and 0.4 mg/mL Geneticin in a humidified atmosphere (5% CO2) at 37° C. The cultures were grown to 80-90% confluency in T150 flasks (Corning) and washed with 1×DPBS and lifted with 0.05% Trypsin (Life Technologies). The cells were then spun (1K rpm, 3 minutes) and frozen using Recovery Cell Culture Freezing Media (Gibco Technologies). Cells were stored in liquid nitrogen and thawed a day before the assay.
# Prior to the day of the assay, stable M2 CHO cells were thawed and plated on Greiner 384 well TC treated plate at a density of 12K cells/well and kept overnight in a humidified atmosphere (5% CO2) at 37° C. The following day, the cells were loaded with Ca^++ dye (BD Biosciences) using Loading Buffer (HBSS +Ca/+Mg, 20 mM HEPES, 2.5 mM Probenecid) and placed back in cell incubator for a minimum of 1 hour and maximum of 2 hours. After incubation, the dye was replaced with Assay Buffer (HBSS −Ca/−Mg, 20 mM HEPES, 2.5 mM Probenecid) supplemented with 20 μM ATP (Sigma Aldrich) and kept at room temperature for 60 minutes prior before running on cell imager. The FDSS 7000EX (Hamamatsu) was used to acquire Ca^++ traces from cells in response to compound treatment and the data was used to generate dose response curves in agonist mode. All compounds were serially diluted in DMSO then prepared in Assay Buffer for Ca^−+ flux studies. The dose response curves were generated from the average of triplicate wells obtained from each data point and used a non-linear regression of four parameter dose response algorithm. The Percent Activity (PA) was measured to EC100 of Carbachol.
# (§3) If an Example was tested more than once in an assay, then the values below represent the geometric mean of the results from each independent experiment.
# [2] = target: T2, human cloned CHRM5 receptor (Homo sapiens, UniProt P08912); test: CHRM5 Ca++ Flux Assay (M5_CHO cells, agonist mode); assay type: cell-based; details: for Emax / M5 FDSS PA %: Percent Activity (PA) measured to EC100 of Carbachol; for Emax: read-out: M5 FDSS PA %; for EC50: agonist mode, geometric mean if tested more than once, read-out: M5 FDSS EC50
# T2 construct: expressed in transfected cells; host or cells: CHO (M5_CHO)
# T2 sequence (P08912 1-532): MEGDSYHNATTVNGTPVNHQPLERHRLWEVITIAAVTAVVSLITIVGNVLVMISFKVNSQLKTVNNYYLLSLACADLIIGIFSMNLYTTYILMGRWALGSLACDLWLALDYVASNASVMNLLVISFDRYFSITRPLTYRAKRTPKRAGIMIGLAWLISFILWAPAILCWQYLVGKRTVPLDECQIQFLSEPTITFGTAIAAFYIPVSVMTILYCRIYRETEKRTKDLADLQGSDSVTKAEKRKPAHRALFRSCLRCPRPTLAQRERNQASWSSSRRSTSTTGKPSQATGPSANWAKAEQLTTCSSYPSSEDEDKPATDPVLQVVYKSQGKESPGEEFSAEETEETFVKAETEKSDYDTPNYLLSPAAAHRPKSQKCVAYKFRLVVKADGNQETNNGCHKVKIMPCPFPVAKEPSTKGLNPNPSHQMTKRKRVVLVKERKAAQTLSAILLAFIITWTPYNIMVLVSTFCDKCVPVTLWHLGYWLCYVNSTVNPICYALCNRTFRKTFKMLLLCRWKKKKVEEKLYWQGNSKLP
# Description: as §1
# as §2, with “CHRM3” for “CHRM2”, “(M3_CHO” for “(M2_CHO”, “IX Pen-Strep,” for “1×Pen-Strep,”, “assay. A similar procedure was used for cells stably expressing the human cloned CHRM5 receptor (M5_CHO).” for “assay.”
# Prior to the day of the assay, stable M3_CHO or M5_CHO cells were thawed and plated on Greiner 384 well black TC treated plates at 12K cells/well in F12/DMEM supplemented with 10% FBS (Hyclone) and kept overnight in a humidified atmosphere (5% CO2) at 37° C. The next day, cells were loaded with Ca^++ dye (BD Biosciences) using Loading Buffer (HBSS +Ca/+Mg, 20 mM HEPES, 2.5 mM Probenecid) and placed back in cell incubator for a minimum of 1 hour. After incubation, the dye was replaced with Assay Buffer (HBSS −Ca/−Mg, 20 mM HEPES, 2.5 mM Probenecid) and kept at room temperature in the dark before running on cell imager. The FDSS 7000EX (Hamamatsu) was used to acquire Ca^+− traces from cells treated with 11 point dose response of compounds in triplicate in order to generate dose response curves in agonist mode. All compounds were serially diluted in DMSO then prepared in Assay Buffer for Ca^++ flux studies. The dose response curves were generated from the average of triplicate wells obtained from each data point and used a non-linear regression of four parameter dose response algorithm. The Percent Activity (PA) was measured to EC100 of Carbachol.
# as §3
Structure (SMILES),EC50 [1],Emax [1],Emax [2],EC50 [2],M2 FDSS PA % [1],M5 FDSS PA % [2]
"Fc1cc(F)c(O[C@@H]2CCOC2)c(C2CCN([C@@H]3COC4(C3)CN(c3nnco3)C4)CC2)c1 [Example 2CC, (S)-7-(4-(3,5-difluoro-2-(((R)-tetrahydrofuran-3-yl)oxy)phenyl)piperidin-1-yl)-2-(1,3,4-oxadiazol-2-yl)-5-oxa-2-azaspiro[3.4]octane]",2.07 µM,37%,0%,> 25 µM,–,–
"CC(C)(O)[C@H]1C[C@@H](Oc2ccc(F)cc2C2CCN([C@@H]3COC4(C3)CN(c3ncco3)C4)CC2)C1 (single isomer, unassigned) [Example 4T, 2-((1R,3s)-3-(4-fluoro-2-(1-((S)-2-(oxazol-2-yl)-5-oxa-2-azaspiro[3.4]octan-7-yl)piperidin-4-yl)phenoxy)cyclobutyl)propan-2-ol or 2-((1S,3r)-3-(4-fluoro-2-(1-((S)-2-(oxazol-2-yl)-5-oxa-2-azaspiro[3.4]octan-7-yl)piperidin-4-yl)phenoxy)cyclobutyl)propan-2-ol]",17.7 µM,–,–,> 25 µM,43%,0%
"Fc1ccc(OC[C@@H]2CCOC2)c(C2CCN([C@@H]3COC4(C3)CN(c3nnco3)C4)CC2)c1 [Example 1B, (S)-7-(4-(5-fluoro-2-(((R)-tetrahydrofuran-3-yl)methoxy)phenyl)piperidin-1-yl)-2-(1,3,4-oxadiazol-2-yl)-5-oxa-2-azaspiro[3.4]octane]",0.492 µM,39%,0%,> 25 µM,–,–
"OC[C@H]1C[C@H](Oc2ccc(F)cc2C2CCN([C@@H]3COC4(C3)CN(c3nnco3)C4)CC2)C1 (single isomer, unassigned) [Example 2HH, ((1S,3r)-3-(2-(1-((S)-2-(1,3,4-oxadiazol-2-yl)-5-oxa-2-azaspiro[3.4]octan-7-yl)piperidin-4-yl)-4-fluorophenoxy)cyclobutyl)methanol or ((1R,3s)-3-(2-(1-((S)-2-(1,3,4-oxadiazol-2-yl)-5-oxa-2-azaspiro[3.4]octan-7-yl)piperidin-4-yl)-4-fluorophenoxy)cyclobutyl)methanol]",6.57 µM,–,–,> 25 µM,25%,0%
"Fc1ccc(O[C@@H]2CCOC2)c(C2CCN([C@@H]3COC4(C3)CN(c3nnco3)C4)CC2)c1 [Example 1D, (S)-7-(4-(5-fluoro-2-(((R)-tetrahydrofuran-3-yl)oxy)phenyl)piperidin-1-yl)-2-(1,3,4-oxadiazol-2-yl)-5-oxa-2-azaspiro[3.4]octane]",0.607 µM,50%,0%,> 25 µM,–,–
"Fc1cc(F)c(OCC2COC2)c(C2CCN([C@@H]3COC4(C3)CN(c3nnco3)C4)CC2)c1 [Example 2DD, (S)-7-(4-(3,5-difluoro-2-(oxetan-3-ylmethoxy)phenyl)piperidin-1-yl)-2-(1,3,4-oxadiazol-2-yl)-5-oxa-2-azaspiro[3.4]octane]",6.76 µM,23%,0%,> 25 µM,–,–
"C[C@H](Oc1ccc(F)cc1C1CCN([C@@H]2COC3(C2)CN(c2nnco2)C3)CC1)C1CCOCC1 [Example 2X, (S)-7-(4-(5-fluoro-2-((S)-1-(tetrahydro-2H-pyran-4-yl)ethoxy)phenyl)piperidin-1-yl)-2-(1,3,4-oxadiazol-2-yl)-5-oxa-2-azaspiro[3.4]octane or(S)-7-(4-(5-fluoro-2-((R)-1-(tetrahydro-2H-pyran-4-yl)ethoxy)phenyl)piperidin-1-yl)-2-(1,3,4-oxadiazol-2-yl)-5-oxa-2-azaspiro[3.4]octane]",11.2 µM,–,–,> 25 µM,23%,0%
"Fc1cc(OC2CCOCC2)c(C2CCN([C@@H]3COC4(C3)CN(c3nnco3)C4)CC2)cc1F [Example 2GG, (S)-7-(4-(4,5-difluoro-2-((tetrahydro-2H-pyran-4-yl)oxy)phenyl)piperidin-1-yl)-2-(1,3,4-oxadiazol-2-yl)-5-oxa-2-azaspiro[3.4]octane]",> 25 µM,0%,0%,> 25 µM,–,–
